Assay results from patent US9446063B2, “Methods for treating type-2 diabetes and obesity” (priority 2009, dated 2016).
Like-named read-outs stand apart in the source and are kept apart here. Marks after values point to notes of the source that are not given here.

How the values were obtained:
[1] = test system: C57BL/6J mice with diet-induced obesity; assay: Body weight gain in high fat diet feeding study (10 wk); format: in vivo; details: for Body weight gain: mean ± SD (n = 3-5)
male mice = details: high fat diet, 1 g/kg diet; cited from earlier work
[2] = test system: carnitine palmitoyltransferase; details: cited from earlier work
[3] = test system: IL-8 release in Caco-2 cell cultures; details: cited from earlier work
[4] = test system: potato microtubers of cvs. Onaway and Goldrush; assay: H2O2 hormesis: microtuber mass / yield; details: for Microtuber mass: mean of 20 containers
Method: (1994). […] Cultures were placed into a growth chamber adjusted to 20±2° C. under 85 μmol m^-2s^-1 cool white florescent illumination with 16:8 h day:night cycle. Phase I promoted the vegetative growth of plantlets which was luxurious after 4 weeks. In Phase II, the residual medium was drained and replaced with 150 ml of liquid induction medium containing increased sucrose (80 gl^-1) and no growth regulators. Phase II incubation occurred at cooler temperature (15±2° C.), under reduced illumination (50 μmol m^-2s^-1), and reversed (8:16 h) day:night cycle. […] Phase II plantlets of cvs. […] At harvest, microtubers of cvs. […] (2007).

[5] = test system: potato microtubers of cvs. Onaway and Goldrush; details: for Increase of ascorbic acid content in comparison to control: cv. Goldrush microtubers; for Ascorbic acid of microtubers / Caffeic acid of microtubers / Chlorogenic acid of microtubers: mean ± SE (n = 5)
Method: (§1) Based on a preliminary study, concentrations of 2 and 4 mM H2O2 and spray volume of ˜6 ml were selected for hormetic treatments. Phase II plantlets of cvs. Onaway and Goldrush (at 2- and 3-weeks) were treated with three concentrations (0, 2, 4 mM) of H2O2 with 5 replicates×4 containers per replicate (20 containers per treatment). Results were analyzed for variance (ANOVA) test using General Linear Model (GLM) of Statistical Analysis System (SAS) (SAS v 9.2, 2010) (SAS Institute Inc., Cary, N.C., USA). Means were compared using Duncan's Multiple Comparison test (P≦0.05).
(§2) At harvest, microtubers of cvs. Onaway and Goldrush were weighed, and averaged from 20 separate containers. For each replicate, microtubers were pooled for analysis, for a total of 5 samples per treatment/cultivar.

[6] = test system: potato microtubers of cvs. Onaway and Goldrush; assay: H2O2 hormesis: antioxidant capacity (DPPH) of in vitro-grown microtubers; details: for DPPH total antioxidant capacity of microtubers: mean ± SE (n = 5)
Method: Plantlets of cvs. Onaway and Goldrush were selected for their relatively high concentrations of antioxidants in field-grown tubers. […] Medium consisted of basal salt solution and organic fraction solidified with 7 g 1^-1 agar ([…]) adjusted to pH 5.7 before autoclaving at 121° C. for 20 min. […] (1994). […] Phase I promoted the vegetative growth of plantlets which was luxurious after 4 weeks. In Phase II, the residual medium was drained and replaced with 150 ml of liquid induction medium containing increased sucrose (80 gl^-1) and no growth regulators. […] Phase II plantlets of cvs. […] At harvest, microtubers of cvs. […] (2007).

[7] = test system: potato microtubers of cvs. Onaway and Goldrush; assay: H2O2 hormesis: total phenolic content of microtubers (Folin-Ciocalteu); details: for Total phenolics (Folin-Ciocalteu) of microtubers: mean ± SE (n = 5)
Method: as §1, §2

[8] = HPLC quantification of ascorbic acid, chlorogenic acid, caffeic acid, ferulic acid and rutin in tubers, tuber tissues and extracts; details: for % reduction; from 1 to 7 months storage (HPLC content): tubers of 12 Canadian-grown cultivars, cold storage
Method: This assay was based on the method developed by Shakya and Navarre (J Agric Food Chem (2006) 54:5253-5260). Initially, samples (50 mg of freeze-dried powder) were extracted in 0.9 mL of extraction buffer (50% MeOH, 2.5% metaphosphoric acid, 1 mM EDTA) in a 2 mL screw cap tube. Samples were vortexed for 30 sec and centrifuged at 11,070×g for 15 min at 4° C. The supernatant was transferred to a 1.5 mL glass vial. The remaining pellet was re-extracted with 0.6 mL of extraction buffer and centrifuged. The supernatants were combined and concentrated in a Speed Vac (Thermo Savant SC 210A, Waltham, Mass.). The concentrated samples were solubilised with 500 mL of extraction buffer and filtered using 0.45 mm membrane filters (Durapore, PVDF) into 1 mL HPLC glass vials. Samples were kept chilled at all times and shielded from bright light. Samples were analyzed using a Varian HPLC system with a quaternary gradient pump, a single wavelength UV/VIS detector, and an autosampler with refrigerated sample compartment (Varian Canada Inc, Mississauga, ON). Samples were eluted using an Onyx reverse-phase HPLC column (100×4.5 mm) (Phenomenex, Netherlands), a solvent flow rate of 2 mL/min and a solvent gradient of 0-1 min 100% buffer A (10 mM formic acid, pH 3.5, with NH4OH), 1-5 min 0-30% buffer B (100% methanol with 5 mM ammonium formate), 5-6.5 min 40-0% buffer B, 6.5-8.5 min 70-100% buffer B. The phenolic acids in the samples were analyzed qualitatively and quantitatively using standards.
Ascorbic acid concentration was also determined as it is also an important antioxidant compound present in potato. HPLC determination is based on the retention time of a particular compound within a mixed sample in the column compared with purchased pure standards. Three different buffers (Buffer A, Buffer B, & Extraction buffer) were prepared. Buffer A was 10 mM formic acid (Fisher Scientific, ON, Canada) (0.46 g of formic acid in 1 L distilled water adjusted to pH 3.5 using 1M NH4OH solution). Buffer A was kept in a fridge (4° C.) until used. Buffer B was 5 mM ammonium formate (Sigma-Aldrich Chemicals, Germany) (0.32 g of ammonium formate in 1 L 100% methanol with agitation on a magnetic stirrer as ammonium formate is highly insoluble). Buffer B was also refrigerated. The extraction buffer was 50% methanol (Fisher Scientific, ON, Canada), 2.5% metaphosphoric acid (Aldrich Chemicals, WI, USA) and 1 mM ethylenediaminetetraacetic acid (EDTA; Sigma-Aldrich Chemicals, Germany) (50 ml of 100% methanol, 2.5 g of metaphosphoric acid, and 0.4 g of EDTA in 100 ml distilled water with stirring followed by filtering using a cup filter (Millipore Corporation, MS, USA). The extraction buffer was also refrigerated. […]

[9] = test system: C57BL/6J mice with diet-induced obesity; assay: Blood glucose concentration at the end of the HFD feeding period; details: mean ± SD (n = 3-5)
[10] = Females, HFD + 1X (1x CGA 8 mg/kg HFD; 1x FA 20 mg/kg HFD)
[11] = Females, HFD + 5X (1x CGA 8 mg/kg HFD; 1x FA 20 mg/kg HFD)
[12] = Females, HFD + 25X (1x CGA 8 mg/kg HFD; 1x FA 20 mg/kg HFD)
[13] = Males, HFD + 1X (1x CGA 8 mg/kg HFD; 1x FA 20 mg/kg HFD)
[14] = Males, HFD + 5X (1x CGA 8 mg/kg HFD; 1x FA 20 mg/kg HFD)
[15] = Males, HFD + 25X (1x CGA 8 mg/kg HFD; 1x FA 20 mg/kg HFD)

For `O=C(/C=C/c1ccc(O)c(O)c1)O[C@@H]1C[C@](O)(C(=O)O)C[C@@H](O)[C@H]1O` [chlorogenic acid], the Body weight gain [1, 10] was 9.7 ± 4.9^a g, the Body weight gain [1, 11] was 7.6 ± 4.1^a g and the Body weight gain [1, 12] was 9.8 ± 3.4^a g. The Body weight gain [1, 13] was 22.4 ± 0.8^b g, the Body weight gain [1, 14] was 18.2 ± 4.1^a,b,c g and the Body weight gain [1, 15] was 8.8 ± 5.3^c g. For the same molecule, the “Effect of pure compound on body weight” value ([1]; female mice, up to 200 mg/kg diet) was “no statistically significant effect”, the “Effect of pure compound on body weight gain” value ([1]; male mice, 8-200 mg/kg diet) was “did not affect body weight gain” and the “Effect on body weight gain” value (male mice) was “no effect on body weight gain”. For the same molecule, the Carnitine palmitoyltransferase activity [2] was “unaffected” and the “Dose needed to suppress IL-8 secretion to levels seen in control cultures” value [3] was 2000 µM.
With `OO` [H2O2, Hydrogen peroxide] the “Effect on microtuber yield” value ([4]; at the dosage applied (2, 4 mM)) was “did not affect yield”, the Microtuber mass ([4]; cv. Goldrush, 2 mM H2O2 spray) was 10.25^a g and the Microtuber mass ([4]; cv. Goldrush, 4 mM H2O2 spray) was 10.26^a g. For the same molecule, the Microtuber mass ([4]; cv. Onaway, 2 mM H2O2 spray) was 5.09^a g, the Microtuber mass ([4]; cv. Onaway, 4 mM H2O2 spray) was 5.07^a g and the “Increase of ascorbic acid content in comparison to control” value ([5]; 2 mM) was 35%. The “Increase of ascorbic acid content in comparison to control” value ([5]; 4 mM) was 34%, the “Effect on microtuber caffeic acid content” value ([5]; cv. Goldrush, 2 mM) was “significant depression” and the “Increase of microtuber chlorogenic acid content” value ([5]; cv. Goldrush, 2 mM) was 16.8%. For the same molecule, the “Ascorbic acid of microtubers” value ([5]; cv. Goldrush, 2 mM H2O2 spray) was 0.269 ± 0.03^a mg/g, the “Caffeic acid of microtubers” value ([5]; cv. Goldrush, 2 mM H2O2 spray) was 0.008 ± 0.00^b mg/g and the “Chlorogenic acid of microtubers” value ([5]; cv. Goldrush, 2 mM H2O2 spray) was 0.561 ± 0.02^a mg/g. For the same molecule, the “Ascorbic acid of microtubers” value ([5]; cv. Goldrush, 4 mM H2O2 spray) was 0.265 ± 0.00^a mg/g, the “Caffeic acid of microtubers” value ([5]; cv. Goldrush, 4 mM H2O2 spray) was 0.011 ± 0.00^a mg/g and the “Chlorogenic acid of microtubers” value ([5]; cv. Goldrush, 4 mM H2O2 spray) was 0.460 ± 0.02^b mg/g. The “Treatment effect on ascorbic acid content” value ([5]; cv. Onaway microtubers) was “not significant”, the “Increase of microtuber chlorogenic acid content” value ([5]; cv. Onaway, 2 mM) was 17.3% and the “Ascorbic acid of microtubers” value ([5]; cv. Onaway, 2 mM H2O2 spray) was 0.170 ± 0.02^a mg/g. For the same molecule, the “Caffeic acid of microtubers” value ([5]; cv. Onaway, 2 mM H2O2 spray) was 0.002 ± 0.00^a mg/g, the “Chlorogenic acid of microtubers” value ([5]; cv. Onaway, 2 mM H2O2 spray) was 0.304 ± 0.02^a mg/g and the “Ascorbic acid of microtubers” value ([5]; cv. Onaway, 4 mM H2O2 spray) was 0.164 ± 0.02^a mg/g. The “Caffeic acid of microtubers” value ([5]; cv. Onaway, 4 mM H2O2 spray) was 0.001 ± 0.00^b mg/g, the “Chlorogenic acid of microtubers” value ([5]; cv. Onaway, 4 mM H2O2 spray) was 0.265 ± 0.04^ab mg/g and the “Increase of antioxidant capacity (DPPH) over control” value (from here on “Increase of antioxidant capacity”) ([6]; cv. Goldrush microtubers, 2 mM H2O2 spray) was 26%. For the same molecule, the “Increase of antioxidant capacity” value ([6]; cv. Goldrush microtubers, 4 mM H2O2 spray) was 20%, the “DPPH total antioxidant capacity of microtubers” value (“DPPH total antioxidant capacity” for short) ([6]; cv. Goldrush, 2 mM H2O2 spray) was 1.316 ± 0.02^a mg/g and the “DPPH total antioxidant capacity” value ([6]; cv. Goldrush, 4 mM H2O2 spray) was 1.214 ± 0.04^b mg/g. The “Increase of antioxidant capacity” value ([6]; cv. Onaway microtubers, 2 or 4 mM H2O2) was 12-14%, the “DPPH total antioxidant capacity” value ([6]; cv. Onaway, 2 mM H2O2 spray) was 0.862 ± 0.02^a mg/g and the “DPPH total antioxidant capacity” value ([6]; cv. Onaway, 4 mM H2O2 spray) was 0.882 ± 0.04^a mg/g. The “Total phenolics (Folin-Ciocalteu) of microtubers” value (from here on “Total phenolics (Folin-Ciocalteu)”) ([7]; cv. Goldrush, 2 mM H2O2 spray) was 7.076 ± 0.01^a mg/g, the “Total phenolics (Folin-Ciocalteu)” value ([7]; cv. Goldrush, 4 mM H2O2 spray) was 6.354 ± 0.00^a mg/g and the “Total phenolics (Folin-Ciocalteu)” value ([7]; cv. Onaway, 2 mM H2O2 spray) was 4.376 ± 0.00^a mg/g. For the same molecule, the “Total phenolics (Folin-Ciocalteu)” value ([7]; cv. Onaway, 4 mM H2O2 spray) was 3.789 ± 0.00^a mg/g and the “Effect on total polyphenolic levels (Folin-Ciocalteu)” value ([7]; either cultivar, 2 and 4 mM) was “not significantly affected”.
For `O=C(/C=C/c1ccc(O)c(O)c1)O[C@@H]1C[C@@](O)(C(=O)O)C[C@@H](O)[C@@H]1O` [neochlorogenic acid], the Carnitine palmitoyltransferase activity [2] is listed as “enhanced”.
With `O=C1O[C@H]([C@@H](O)CO)C(O)=C1O` [ascorbic acid] the “% reduction of ascorbic acid with storage” value ([8]; tubers of 5 foreign cultivars, 1 to 7 months storage) was 36.09% and the “% reduction; from 1 to 7 months storage (HPLC content)” value (“% reduction … (HPLC content)” below) [8] was 80.48%.
In the case of `O=C(O)/C=C/c1ccc(O)c(O)c1` [caffeic acid], the “% reduction … (HPLC content)” value [8] is given as 92.16% and the “Dose needed to suppress IL-8 secretion to levels seen in control cultures” value [3] is given as 2000 µM.
With `COc1cc(/C=C/C(=O)O)ccc1O` [ferulic acid] the Fasting blood glucose [9, 10] was 3.8 ± 0.6^a mmol/L, the Fasting blood glucose [9, 11] was 6.9 ± 1.1^a mmol/L and the Fasting blood glucose [9, 12] was 4.7 ± 1.6^a mmol/L. For the same molecule, the Fasting blood glucose [9, 13] was 5.2 ± 0.6^b mmol/L, the Fasting blood glucose [9, 14] was 6.1 ± 1.2^a mmol/L and the Fasting blood glucose [9, 15] was 5.4 ± 0.2^b mmol/L. For the same molecule, the Body weight gain [1, 10] was 9.7 ± 3.4^a g, the Body weight gain [1, 11] was 6.3 ± 1.2^a g and the Body weight gain [1, 12] was 8.8 ± 5.0^a g. The Body weight gain [1, 13] was 12.4 ± 3.7^a,b,c g, the Body weight gain [1, 14] was 10.8 ± 2.3^a,b,c g and the Body weight gain [1, 15] was 11.0 ± 6.5^a,b,c g. The “Effect of pure compound on body weight gain” value ([1]; both sexes, up to 500 mg/kg diet) was “ineffective in suppressing body weight gain” and the “% reduction … (HPLC content)” value [8] was 90.21%.
